Laboratory results from publication PMC8330957 (Nature genetics, 2020).
Entries after “also recorded” stand apart in the source; their conditions may differ.

Experiments:
[1] = test system: BAHCC1 (chromatin-bound), 293 cells; assay: Cell fractionation and immunoblotting of chromatin-bound BAHCC1; type: cell-based; details: immunoblotting after cell fractionation, UNC1999 versus DMSO
[2] = test system: CUTLL1 cells; assay: RT-qPCR of H3K27me3-marked genes after UNC1999 treatment, CUTLL1; type: cell-based, human; details: 5 μM UNC1999, three days, three independent experiments
[3] = test system: 3×Flag-BAHCC1 at TSS of target genes, JURKAT cells; assay: Flag ChIP-qPCR of BAHCC1 binding to target genes; type: cell-based, human; details: UNC1999 versus DMSO, three independent experiments
[4] = test system: JURKAT cells; assay: RNA-seq of JURKAT cells treated with UNC1999; type: cell-based, human; details: three-day treatment with 5 μM UNC1999
[5] = test system: JURKAT cells; assay: RT-qPCR of H3K27me3-marked genes after UNC1999 treatment, JURKAT; type: cell-based, human; details: 5 μM UNC1999, three days, three independent experiments

## CCCc1cc(C)[nH]c(=O)c1CNC(=O)c1cc(-c2ccc(N3CCN(C(C)C)CC3)nc2)cc2c1cnn2C(C)C [UNC1999]
[1]
  overall BAHCC1 binding to chromatin: impaired
[2]
  expression of examined H3K27me3-marked genes: re-activation
[3]
  BAHCC1 binding to its target genes: significantly reduced
[4]
  overlap of UNC1999-derepressed DEGs with those caused by BAHCC1 loss: significant overlapping; also recorded: significantly overlapped
[5]
  expression of examined H3K27me3-marked genes: re-activation
